Measurements as given in patent US20240217951A1, “PCSK9 INHIBITORS AND METHODS OF USE THEREOF” (AstraZeneca AB, priority 2022, published 2024).

Experiments:
[1] = target: T1, potassium ion channel hERG (human Ether-á-go-go-Related Gene) (Homo sapiens, UniProt Q12809); test: Assay 5 - hERG assay (SyncroPatch 384PE patch clamp, CHO cells); format: cell-based; settings: geometric mean; CHO cells over-expressing hERG; read-out: Assay 5 (hERG Hu CHO IF EPh CR-Syncro) GMean IC50
T1 construct: expressed in transfected cells; host or cells: Chinese hamster ovary K1 (CHO)
T1 sequence (Q12809 whole entry): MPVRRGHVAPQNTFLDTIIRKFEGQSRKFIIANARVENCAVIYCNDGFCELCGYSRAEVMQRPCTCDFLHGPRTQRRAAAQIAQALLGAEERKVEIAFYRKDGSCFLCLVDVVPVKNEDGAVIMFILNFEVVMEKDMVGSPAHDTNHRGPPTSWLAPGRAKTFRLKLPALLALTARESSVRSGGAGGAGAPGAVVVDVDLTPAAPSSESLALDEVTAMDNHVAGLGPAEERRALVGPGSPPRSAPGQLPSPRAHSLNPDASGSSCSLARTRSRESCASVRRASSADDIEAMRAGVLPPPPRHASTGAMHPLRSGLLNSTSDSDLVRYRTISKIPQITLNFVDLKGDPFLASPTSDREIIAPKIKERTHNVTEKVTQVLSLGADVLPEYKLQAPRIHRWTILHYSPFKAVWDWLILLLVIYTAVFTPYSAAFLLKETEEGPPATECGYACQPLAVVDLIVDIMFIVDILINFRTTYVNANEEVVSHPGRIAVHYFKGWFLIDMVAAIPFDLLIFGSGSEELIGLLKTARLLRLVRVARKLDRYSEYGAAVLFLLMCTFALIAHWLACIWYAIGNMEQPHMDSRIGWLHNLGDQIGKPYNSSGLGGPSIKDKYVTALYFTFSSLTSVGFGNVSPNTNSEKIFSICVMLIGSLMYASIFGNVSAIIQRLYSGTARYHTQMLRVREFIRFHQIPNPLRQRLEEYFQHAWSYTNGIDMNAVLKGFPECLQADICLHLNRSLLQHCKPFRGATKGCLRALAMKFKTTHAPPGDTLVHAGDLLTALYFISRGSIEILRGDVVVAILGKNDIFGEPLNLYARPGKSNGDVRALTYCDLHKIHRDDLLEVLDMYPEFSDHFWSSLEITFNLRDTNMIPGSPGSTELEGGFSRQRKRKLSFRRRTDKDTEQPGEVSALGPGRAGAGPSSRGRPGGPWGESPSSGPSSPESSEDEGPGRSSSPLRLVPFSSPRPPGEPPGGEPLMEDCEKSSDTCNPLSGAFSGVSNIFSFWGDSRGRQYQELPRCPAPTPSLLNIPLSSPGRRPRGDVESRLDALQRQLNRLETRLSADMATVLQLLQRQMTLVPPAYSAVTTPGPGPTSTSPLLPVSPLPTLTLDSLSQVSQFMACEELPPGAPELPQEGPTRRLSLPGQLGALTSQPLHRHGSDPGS
Protocol: Assay 5—hERG Assay (Human Ether-á-go-go-Related Gene)
This assay (human Ether-á-go-go-Related Gene) measures activity of the compounds at the potassium ion channel hERG (human Ether-á-go-go-Related Gene).
Experiments were performed on the SyncroPatch 384PE high throughput patch clamp platform at room temperature and medium resistance chips with 4 patch holes per site. Chinese hamster ovary K1 (CHO) cell lines over-expressing the ion channel of choice (hERG) were used in assay-ready format and kept in liquid nitrogen or were used from live culture. Cells were either thawed and diluted in HBSS or were detached from flasks and resuspended in HBSS. HBSS comprised 140 mM NaCl, 4 mM KCl, 10 mM HEPES and 5 mM Glucose (pH7.4). The internal patch clamp solution was KF 120 mM, KCl 20 mM, HEPES 10 mM, EGTA 10 mM, and 25 PM Escin (pH 7.2). After the sealing process was complete, the external solution was exchanged for external patch clamp solution comprising NaCl 80 mM, KCl 4 mM, HEPES 10 mM, CaCl2 2 mM, MgCl2 1 mM, glucose 5 mM, and NMDG 60 mM (pH 7.4). All solutions were stored at room temperature, except Escin, which was stored at 4° C. All test compounds were dispensed in greiner-bio 384 well plates and tested in a 6 point cumulative assay (final DMSO concentration 0.33%). Only wells that passed previously agreed acceptance criteria for this platform were used in this analysis (30 MegaOhm seal resistance, Z prime >0.4 and current size >0.2 nA).

[2] = target: GSK3β (Glycogen synthase kinase-3 beta) (Homo sapiens, UniProt P49841); test: Assay 6 - GSK3β assay (ThermoFisher Z-Lyte); format: biochemical; settings: geometric mean; ATP Conc: 10 μM; read-out: Assay 6 (GSK3β FRET-Z-Lyte CR) GMean IC50 (μM) ATP Conc: 10
GSK3β (Glycogen synthase kinase-3 beta), sequence (P49841 whole entry): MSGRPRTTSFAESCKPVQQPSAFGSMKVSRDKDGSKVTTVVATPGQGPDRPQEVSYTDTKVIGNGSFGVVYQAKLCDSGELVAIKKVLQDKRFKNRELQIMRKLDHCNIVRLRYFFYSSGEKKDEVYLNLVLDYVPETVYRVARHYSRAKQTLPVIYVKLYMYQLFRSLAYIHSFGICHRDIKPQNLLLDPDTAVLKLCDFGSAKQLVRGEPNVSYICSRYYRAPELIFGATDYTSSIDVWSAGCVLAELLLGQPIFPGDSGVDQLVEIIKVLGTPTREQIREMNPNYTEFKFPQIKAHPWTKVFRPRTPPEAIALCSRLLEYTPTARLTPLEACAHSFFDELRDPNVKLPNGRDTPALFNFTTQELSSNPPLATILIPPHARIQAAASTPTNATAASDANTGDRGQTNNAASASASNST
Protocol: Assay 6—GSK3β Assay (ThermoFisher Assay)
This assay measures the activity of the compounds at GSK3β (Glycogen synthase kinase-3 beta).
The test compounds were screened in 1% DMSO (final) in the well. For 10 point titrations, 3-fold serial dilutions are conducted from the starting concentration of 10 μM.
Bar-coded Corning, low volume NBS, black 384-well plate • 1. 2.5 μL—4× Test Compound or 100 nL 100× plus 2.4 μL kinase buffer • 2. 5 μL—2× Peptide/Kinase Mixture • 3. 2.5 μL—4×ATP Solution • 4. 30-second plate shake • 5. 60-minute Kinase Reaction incubation at room temperature • 6. 5 μL—Development Reagent Solution • 7. 30-second plate shake • 8. 60-minute Development Reaction incubation at room temperature • 9. Read on fluorescence plate reader and analyse the data
In step 2, the 2×GSK3β (GSK3 beta)/Ser/Thr (Glycogen synthase kinase-3 beta/Serine/Threonine) 09 mixture is prepared in 50 mM HEPES (4-(2-hydroxyethyl)-1-piperazineethanesulfonic acid) pH 7.5, 0.01% BRIJ-35, 10 mM MgCl2, 1 mM EGTA (egtazic acid). The final 10 μL Kinase Reaction consists of 0.22-0.92 ng GSK3β (GSK3 beta) and 2 μM Ser/Thr 09 in 50 mM HEPES pH 7.5, 0.01% BRIJ-35, 10 mM MgCl2, 1 mM EGTA.
In step 3 the ATP Solution is diluted to a 4× working concentration in Kinase Buffer (50 mM HEPES pH 7.5, 0.01% BRIJ-35, 10 mM MgCl2, 1 mM EGTA).
In Step 6 the Development Reagent is diluted 1:512 in Development Buffer (10× Novel PKC Lipid Mix: 2 mg/mL Phosphatidyl Serine, 0.2 mg/mL DAG in 20 mM HEPES, pH 7.4, 0.3% CHAPS).
SelectScreen® Kinase Profiling Service uses XLfit from IDBS. The dose response curve is curve fit to model number 205 (sigmoidal dose-response model).

[3] = target: PCSK9 (Homo sapiens, UniProt Q8NBP7, G670E/V474I); test: biochemical
PCSK9, sequence (Q8NBP7 with tags, fused parts or gaps V474I/G670E): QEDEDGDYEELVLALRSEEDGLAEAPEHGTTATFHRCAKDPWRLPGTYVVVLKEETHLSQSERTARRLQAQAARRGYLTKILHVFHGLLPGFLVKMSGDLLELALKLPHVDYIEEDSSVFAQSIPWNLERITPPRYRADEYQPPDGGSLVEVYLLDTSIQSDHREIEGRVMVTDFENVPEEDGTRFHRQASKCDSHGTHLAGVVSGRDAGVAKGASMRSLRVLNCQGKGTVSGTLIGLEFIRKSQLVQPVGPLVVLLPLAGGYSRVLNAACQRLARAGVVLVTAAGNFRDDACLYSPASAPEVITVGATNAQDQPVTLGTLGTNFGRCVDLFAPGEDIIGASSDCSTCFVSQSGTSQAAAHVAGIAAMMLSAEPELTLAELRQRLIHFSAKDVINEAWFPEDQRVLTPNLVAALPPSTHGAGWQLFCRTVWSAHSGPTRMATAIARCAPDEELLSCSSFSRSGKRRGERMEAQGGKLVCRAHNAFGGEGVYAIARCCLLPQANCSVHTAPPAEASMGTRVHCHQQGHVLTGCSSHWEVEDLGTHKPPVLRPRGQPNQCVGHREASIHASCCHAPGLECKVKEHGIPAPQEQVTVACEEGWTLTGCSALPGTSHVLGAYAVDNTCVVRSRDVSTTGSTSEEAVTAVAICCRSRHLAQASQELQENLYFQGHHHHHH

| SMILES | IC50 [1] | IC50 [2] | IC50 [3] |
| --- | --- | --- | --- |
| COc1cccn(-c2ccc(N[C@H]3CC[C@H](Nc4cnc(C)cn4)C3)nc2)c1=O (single isomer, unassigned) [Example 171] | > 40.1 µM | 2.1 µM | 0.602 µM |
| O=c1cccnn1-c1ccc(N[C@H]2CC[C@H](Nc3cnc(Cl)cn3)C2)nc1 [Example 25, 2-(6-(((1S,3S)-3-((5-Chloropyrazin-2-yl)amino)cyclopentyl)amino)pyridin-3-yl)pyridazin-3 (2H)-one] | > 40 µM | > 10 µM | 0.028 µM |
| C[C@@]12C[C@]1(C)C(=O)N(c1ccc(N[C@H]3CC[C@H](Nc4cnc(OC(F)F)cn4)C3)nc1)C2=O [Example 80, (cis)-3-(6-(((1S,3S)-3-((5-(Difluoromethoxy)pyrazin-2-yl)amino)cyclopentyl)amino)pyridin-3-yl)-1,5-dimethyl-3-azabicyclo[3.1.0]hexane-2,4-dione] | > 40 µM | > 10 µM | 1.03 µM |
| Cn1ccc2ncc(N[C@H]3CC[C@H](Nc4ccc(-n5ccccc5=O)cn4)C3)nc21 [Example 8, 6′-(((1S,3S)-3-((5-Methyl-5H-pyrrolo[2,3-b]pyrazin-3-yl)amino)cyclopentyl)amino)-2H-[1,3′-bipyridin]-2-one] | > 40 µM | > 10 µM | 0.257 µM |
| Cc1cnc(N[C@H]2CC[C@H](Nc3ccc(-n4ccccc4=O)cn3)C2)c(=O)[nH]1 [Example 253, 6′-(((1S,3S)-3-((5-Methyl-3-oxo-3,4-dihydropyrazin-2-yl)amino)cyclopentyl)amino)-2H-[1,3′-bipyridin]-2-one] | > 40.1 µM | > 10 µM | 0.307 µM |
| Cn1ccc2nc(N[C@H]3CC[C@H](Nc4ccc(-n5ccccc5=O)cn4)C3)cnc21 [Example 7, 6′-(((1S,3S)-3-((5-Methyl-5H-pyrrolo[2,3-b]pyrazin-2-yl)amino)cyclopentyl)amino)-2H-[1,3′-bipyridin]-2-one] | > 40 µM | > 10 µM | 3.5 µM |
| Cc1ncc(N[C@H]2CC[C@H](Nc3ccc(-n4cc(Cl)ccc4=O)cn3)C2)nc1C [Example 17, 5-Chloro-6′-(((1S,3S)-3-((5,6-dimethylpyrazin-2-yl)amino)cyclopentyl)amino)-2H-[1,3′-bipyridin]-2-one] | > 40 µM | > 10 µM | 0.053 µM |
| CN1C(=O)CN(c2ccc(N[C@H]3CC[C@H](Nc4cnc(Cl)cn4)C3)nc2)C1=O [Example 26, 1-(6-(((1S,3S)-3-((5-Chloropyrazin-2-yl)amino)cyclopentyl)amino)pyridin-3-yl)-3-methylimidazolidine-2,4-dione] | 14.3 µM | > 10 µM | 0.0243 µM |
| N#Cc1ccc(=O)n(-c2ccc(N[C@H]3CC[C@H](Nc4cnc(C5CC5)cn4)C3)nc2)c1 [Example 110, 6′-(((1S,3S)-3-((5-Cyclopropylpyrazin-2-yl)amino)cyclopentyl)amino)-2-oxo-2H-[1,3′-bipyridine]-5-carbonitrile] | 25.3 µM | > 10 µM | 0.048 µM |
| CN1CC(=O)N(c2ccc(N[C@H]3CC[C@H](Nc4cnc(OC(F)F)cn4)C3)nc2)C1=O [Example 93, 3-(6-(((1S,3S)-3-((5-(Difluoromethoxy)pyrazin-2-yl)amino)cyclopentyl)amino)pyridin-3-yl)-1-methylimidazolidine-2,4-dione] | > 40 µM | > 10 µM | 0.087 µM |
| N#Cc1cccn(-c2ccc(N[C@H]3CC[C@H](Nc4cnc(OC(F)F)cn4)C3)nc2)c1=O [Example 90, 6′-(((1S,3S)-3-((5-(Difluoromethoxy)pyrazin-2-yl)amino)cyclopentyl)amino)-2-oxo-2H-[1,3′-bipyridine]-3-carbonitrile] | 11.7 µM | > 10 µM | 0.015 µM |
| Cc1cnc(N[C@H]2CC[C@H](Nc3ccc(N4C(=O)CCc5ccccc54)cn3)C2)cn1 [Example 274, 1-(6-(((1S,3S)-3-((5-Methylpyrazin-2-yl)amino)cyclopentyl)amino)pyridin-3-yl)-3,4-dihydroquinolin-2 (1H)-one] | 17.1 µM | > 10 µM | 0.0081 µM |
| Cc1cnc(N[C@H]2CC[C@H](Nc3ccc(-n4cccc(-c5c[nH]nn5)c4=O)cn3)C2)cn1 [Example 205, 6′-(((1S,3S)-3-((5-Methylpyrazin-2-yl)amino)cyclopentyl)amino)-3-(1H-1,2,3-triazol-4-yl)-2H-[1,3′-bipyridin]-2-one] | > 40.1 µM | > 10 µM | 0.007 µM |
| Cc1nc(N[C@H]2CC[C@H](Nc3ccc(-n4ccccc4=O)cn3)C2)cnc1OC(F)F [Example 91, 6′-(((1S,3S)-3-((5-(Difluoromethoxy)-6-methylpyrazin-2-yl)amino)cyclopentyl)amino)-2H-[1,3′-bipyridin]-2-one] | 9.6 µM | > 10 µM | 0.436 µM |
| Cc1cnc(N[C@H]2CC[C@H](Nc3ccc(-n4nc(Cl)ccc4=O)cn3)C2)cn1 [Example 233, 6-Chloro-2-(6-(((1S,3S)-3-((5-methylpyrazin-2-yl)amino)cyclopentyl)amino)pyridin-3-yl)pyridazin-3 (2H)-one] | > 40.1 µM | > 10 µM | 0.024 µM |
| O=c1ccc(Cl)cn1-c1ccc(N[C@H]2CC[C@H](Nc3cnc(OC(F)F)cn3)C2)nc1 [Example 83, 5-Chloro-6′-(((1S,3S)-3-((5-(difluoromethoxy)pyrazin-2-yl)amino)cyclopentyl)amino)-2H-[1,3′-bipyridin]-2-one] | 5 µM | > 10 µM | 0.044 µM |
| Cc1ncc(N[C@H]2CC[C@H](Nc3ccc(-n4cc(C#N)ccc4=O)cn3)C2)nc1C [Example 48, 6′-(((1S,3S)-3-((5,6-Dimethylpyrazin-2-yl)amino)cyclopentyl)amino)-2-oxo-2H-[1,3′-bipyridine]-5-carbonitrile] | 18.4 µM | > 10 µM | 0.113 µM |
| Cc1cnc(N[C@H]2CC[C@H](Nc3ccc(-n4nccc(C)c4=O)cn3)C2)cn1 [Example 227, 4-Methyl-2-(6-(((1S,3S)-3-((5-methylpyrazin-2-yl)amino)cyclopentyl)amino)pyridin-3-yl)pyridazin-3 (2H)-one] | > 40.1 µM | > 10 µM | 0.012 µM |
| COC(=O)CSc1cnc(N[C@H]2CC[C@H](Nc3ccc(-n4ccccc4=O)cn3)C2)cn1 [Example 164, Methyl 2-((5-(((1S,3S)-3-((2-oxo-2H-[1,3′-bipyridin]-6′-yl)amino)cyclopentyl)amino)pyrazin-2-yl)thio)acetate] | > 40.1 µM | > 10 µM | 0.451 µM |
| Cc1cnc(N[C@H]2CC[C@H](Nc3ccc(-n4cc(-c5cnn(C)c5)ccc4=O)cn3)C2)cn1 [Example 206, 5-(1-Methyl-1H-pyrazol-4-yl)-6′-(((1S,3S)-3-((5-methylpyrazin-2-yl)amino)cyclopentyl)amino)-2H-[1,3′-bipyridin]-2-one] | > 40.1 µM | > 10 µM | 0.022 µM |
| O=c1ccc(Cl)cn1-c1ccc(N[C@H]2CC[C@H](Nc3cnc(Cl)cn3)C2)nc1 [Example 29, 5-Chloro-6′-(((1S,3S)-3-((5-chloropyrazin-2-yl)amino)cyclopentyl)amino)-2H-[1,3′-bipyridin]-2-one] | 11.1 µM | > 10 µM | 0.014 µM |
